Patent EP2565188A1, “Novel photoactivatable paclitaxel derivatives and uses thereof, in particular in cellbiology and cancer treatment” (Max-Planck-Gesellschaft zur Förderung der Wissenschaften …, priority 2011, dated 2013)

Key:
HeLa cells [1] = type: cell-based, Human; conditions: for cytotoxicity: concentrations at least up to 10 µM
Method: (§1) Human cervix carcinoma cells, HeLa cells (#ACC57, DMSZ, Germany), were cultured in DMEM medium (Invitrogen) supplemented with 10% fetal calf serum (FCS, Gibco) in a humidified incubator at 37°C/5%CO2.
In order to evaluate the bioactivity of the caged PCT derivatives, their cytotoxicity was tested in vitro using HeLa cells. Cells were incubated with PTX and caged PTX derivatives at concentrations between 0.01 and 10 µM.
The effect of PTX and derivatives on cell vitality was measured in a combined assay determining cytotoxicity and cell number by propidium iodide (PI) staining. HeLa cells (2x10^4 cells/well) were diluted in cell culture medium (DMEM, 10 % FCS) and seeded in 96 well-plates (black plate, clear bottom, corning, Amsterdam, Netherlands). The culture medium was replaced after ~16h by compound supplemented medium (200 µL, DMEM, 10 % FCS, 1 % DMSO) or medium without compound (DMEM, 10 % FCS, 1 % DMSO) as a specific control. After 48 h, dead cells with permeable cell membranes were stained with PI ([…], 15 min at 37°C, 5% CO2) and the PI fluorescence intensity was measured with a fluorescence plate reader (excitation wavelength 530 nm, emission wavelength 620 nm, Tecan Infinite M1000, Austria). Subsequently, the cells were lysed with 2% Triton X-100 diluted in DMEM (0.3% Triton X-100 per well, 15 min at 37°C, 5% CO2 and the PI fluorescence was measured again. The vitality of the cells was calculated by the ratio of dead cells (DC) before lyses and the total cell number (TCN) after lyses (1-DC/TCN).

[2] = Photocleavage study: irradiation at 360 nm, composition by HPLC; type: physicochemical; conditions: 1 mM, 5% water in acetonitril, share of the labelled species
Method: The photolysis of the compounds 2'-Nvoc-PTX and 2',7-bisNvoc-PTX was followed by UV and HPLC analysis of the correspondent solutions after exposure to light at λmax = 360 nm (2.7 mW/cm^2).
3 ml of a 1 mM solution of caged PTX in acetonitrile containing 5% water was placed into a quartz cuvette and was exposed at 360 nm for different irradiation times. Aliquots of 50 µl were taken after various irradiation times, and each aliquot was splitted in two parts. 20 µl were diluted to 400 µl to obtain 50 µM solution for UV-Vis characterisation. The 30 µl left from each aliquot were injected into the HPLC (20 µl loop, analytical column) in order to estimate the composition of the irradiated mixture.
Photocleavage of compound 2',7-bisNvoc-PTX was expected to yield the mono-substituted species 2'-Nvoc-PTX and 7-Nvoc-PTX as intermediates that can be further photolyzed to afford free PTX. In fact, HPLC analysis (Fig. 1) confirmed the presence of 2'-Nvoc-PTX (retention time, r.t.= 16.7 min) and 7-Nvoc-PTX (r.t. = 18.2 min) together with the starting compound 2',7-bisNvoc-PTX (r.t. = 21.3 min) and the fully deprotected PTX (r.t. = 11.1 min). The ratio of these compounds within the composition of the irradiated mixture changes with the exposure dose. Fig. 2 and Table B below show the compositional evolution of the mixture with increasing irradiation time as obtained by HPLC analysis. […] However, the influence of other structural factors in the photolytic mechanism cannot be ruled out. Compound 7-Nvoc-PTX could also be isolated from the irradiated mixture in milligram scale. Table B. Molar composition of a solution of 2',7-bisNvoc-PTX (1 mM, 5% water in acetonitril) after different irradiation times, as determined by analysis of HPLC graphs (Fig. 2)

[3] = Solubility test of 10 µM solutions in 1:1000 DMSO:PIPES buffer; type: physicochemical
Method: 10 mM solutions of PTX derivatives in DMSO were prepared. All substances were soluble in DMSO at this concentration. 10 µM solutions of were obtained by 1:1000 dilution of the stock solution into 80 mM PIPES buffer pH 6.8, containing 2 mM MgCl2 and 1 mM EGTA. Table A: solubility test of 10 µM solutions of PTX derivatives in 1:1000 DMSO:PIPES buffer

HeLa cells [4] = assay: Live cell imaging of the microtubule network (Tubulin Tracker / DRAQ5, CLSM); type: cell-based, Human; conditions: for microtubule staining by Tubulin Tracker (fluorescence CLSM) / cell morphology / mitosis in microscopy images: 10 µM; for microtubule staining by Tubulin Tracker (fluorescence CLSM) / inhibition of PTX bioactivity / binding of PTX to β-tubulin by the cage / cell morphology / mitosis in microscopy images / concentrations at which the derivative bound to tubulin / concentration triggering the multiple nuclei pattern: 24 h; for inhibition of PTX bioactivity / binding of PTX to β-tubulin by the cage: concentrations up to 10 µM
Method: as §1
In order to visualize the influence of the PTX derivatives in the microtubule network of the cell, a live cell microscopy analysis of HeLa cells after incubation with 10 µM PTX derivatives for 24 hours was performed.
Specifically, microtubules and nuclei of HeLa cells were fluorescently stained with Tubulin Tracker (Invitrogen) and DRAQ5 (biostatus, United Kingdom) respectively, and imaged by a Leica TCS SP5 confocal laser scanning microscopy (CLSM). 30x10^4 HeLa cells were seeded in 8-well chamber slides (Lab-Tek, nunc, Germany) and the culture medium was replaced after ~16 h by compound supplemented medium (250 µL, DMEM, 10% FCS, 1% DMSO) or medium without compound (DMEM, 10% FCS, 1% DMSO) as a specific control. After 24h, cells were carefully washed with Hank's Buffered Saline Solution (HBSS, with Ca^2+ and Mg^2+, Invitrogen) and the buffer was replaced by a staining solution containing 250 nM Tubulin Tracker (Invitrogen) and 5 µM DRAQ5. The cells were stained for 30 min at 37°C/5% CO2 in a humidified incubator. The staining solution was replaced by HBSS and the cells were directly imaged with a 100x plan apochromat (1.4 NA) oil immersion objective on the CLSM system equipped with a CO2 incubator and a temperature control. Tubulin Tracker was excited with an argon laser (488 nm) and the emission was detected by 500-580 nm. DRAQ5 was excited with a HeNe laser (633 nm) and the emission was detected by 650-730 nm. The images have a voxel height and width of 90 nm. Bright field images grabbed with an Olympus IX-70 inverted microscope with a 20x phase contrast objective. Image processing performed with Leica LAS AF lite and ImageJ (Fiji).

[5] = 360 nm (2.7 mW/cm^2), irradiation time 0 min
[6] = 360 nm, irradiation time 60 min
[7] = 360 nm, irradiation time 270 min
[8] = 360 nm, irradiation time 450 min
[9] = 360 nm, irradiation time 570 min
[10] = 360 nm, irradiation time 735 min
[11] = 360 nm, irradiation time 820 min
[12] = 360 nm, irradiation time 1585 min
[13] = 10 µM in 1:1000 DMSO:PIPES buffer (80 mM, pH 6.8), time 1 hr
[14] = 10 µM in 1:1000 DMSO:PIPES buffer (80 mM, pH 6.8), time 8 hrs
[15] = 10 µM in 1:1000 DMSO:PIPES buffer (80 mM, pH 6.8), time 24 hrs
[16] = 10 µM in 1:1000 DMSO:PIPES buffer (80 mM, pH 6.8), time 30 hrs
[17] = 10 µM in 1:1000 DMSO:PIPES buffer (80 mM, pH 6.8, 2 mM MgCl2, 1 mM EGTA), time 5 min

Row | SMILES | cytotoxicity (HeLa cells [1]; 48 h) | Molar composition of a solution of 2',7-bisNvoc-PTX after irradiation [2, 5] [%] | Molar composition of a solution of 2',7-bisNvoc-PTX after irradiation [2, 6] [%] | Molar composition of a solution of 2',7-bisNvoc-PTX after irradiation [2, 7] [%] | Molar composition of a solution of 2',7-bisNvoc-PTX after irradiation [2, 8] [%] | Molar composition of a solution of 2',7-bisNvoc-PTX after irradiation [2, 9] [%] | Molar composition of a solution of 2',7-bisNvoc-PTX after irradiation [2, 10] [%] | Molar composition of a solution of 2',7-bisNvoc-PTX after irradiation [2, 11] [%] | Molar composition of a solution of 2',7-bisNvoc-PTX after irradiation [2, 12] [%] | solubility test (appearance of solution) [3, 13] | solubility test (appearance of solution) [3, 14] | solubility test (appearance of solution) [3, 15] | solubility test (appearance of solution) [3, 16] | solubility test (appearance of solution) [3, 17] | microtubule staining by Tubulin Tracker (fluorescence CLSM) (HeLa cells [4]) | inhibition of PTX bioactivity / binding of PTX to β-tubulin by the cage (HeLa cells [4]) | cell morphology / mitosis in microscopy images (HeLa cells [4]) | concentrations at which the derivative bound to tubulin (HeLa cells [4]) [nM] | other results
1 | COc1cc(COC(=O)O[C@H]2C[C@H]3OC[C@@]3(OC(C)=O)[C@H]3[C@H](OC(=O)c4ccccc4)[C@]4(O)C[C@H](OC(=O)[C@H](OC(=O)OCc5cc(OC)c(OC)cc5[N+](=O)[O-])[C@@H](NC(=O)c5ccccc5)c5ccccc5)C(C)=C([C@@H](OC(C)=O)C(=O)[C@]23C)C4(C)C)c([N+](=O)[O-])cc1OC [2',7-bisNvoc-PTX] | did not show any cytotoxicity | 100 | 90.5 | 72.3 | 51.1 | 42.2 | 27.5 | 24.3 | 6.1 | clear solution | clear solution | clear solution | turbid solution | clear solution | evenly stained by Tubulin Tracker and showed similar patterns than the negative control | effectively inhibited binding of PTX to β-tubulin |  |  | vitality of cells after incubation with irradiated solutions (HeLa cells [1]; irradiated solutions of 2',7-bisNvoc-PTX, longer irradiation times): 0.5; cytotoxic effects of irradiated solutions (HeLa cells [1]; irradiated solutions of 2',7-bisNvoc-PTX, shortest irradiation time): Cytotoxic effects were visible already at the shortest irradiation time
2 | COc1cc(COC(=O)O[C@@H](C(=O)O[C@H]2C[C@@]3(O)[C@@H](OC(=O)c4ccccc4)[C@@H]4[C@]5(OC(C)=O)CO[C@@H]5C[C@H](O)[C@@]4(C)C(=O)[C@H](OC(C)=O)C(=C2C)C3(C)C)[C@@H](NC(=O)c2ccccc2)c2ccccc2)c([N+](=O)[O-])cc1OC [2'-Nvoc-PTX] |  | 0 | 6.3 | 17.4 | 27.6 | 32.3 | 35.6 | 38.1 | 25.6 | clear solution | clear solution | turbid solution | Suspension | clear solution |  | not able to completely inhibit PTX bioactivity | showed similar results to free PTX | > 10 | reduction in vitality (HeLa cells [1]; 48 h, at 0.5 µM): ~ 25%; concentration range over which the derivative can be regarded as caged PTX (HeLa cells [1]; vitality results): < 0.1 µM; concentration triggering the multiple nuclei pattern (HeLa cells [4]; patterns similar between the compounds (Fig. 6)): 0.05 µM
3 | COc1cc(COC(=O)O[C@H]2C[C@H]3OC[C@@]3(OC(C)=O)[C@H]3[C@H](OC(=O)c4ccccc4)[C@]4(O)C[C@H](OC(=O)[C@H](O)[C@@H](NC(=O)c5ccccc5)c5ccccc5)C(C)=C([C@@H](OC(C)=O)C(=O)[C@]23C)C4(C)C)c([N+](=O)[O-])cc1OC [7-Nvoc-PTX] | did not show any cytotoxicity | 0 | 3.2 | 8.6 | 15.3 | 14.9 | 18.4 | 16.4 | 7.8 |  |  |  |  |  | microtubules were less stained, tripolar spindles appeared and the cells developed multiple nuclei with different sizes | not able to completely inhibit PTX bioactivity | formed an adherent monolayer similar to the negative control | > 1000 | concentration triggering the multiple nuclei pattern (HeLa cells [4]; pattern similar to 2 nM PTX (Fig. 6)): 10 µM; prevention of mitotic blocking relative to 2'-Nvoc-PTX (HeLa cells [4]; at the concentration tested (10 µM)): ~ 200 fold
